For one data set the following is noted: acidic group.
One may read the pKa as the negative logarithm of the acid dissociation constant. Read a low pKa as a stronger acid or weaker base. For `CC(C)(C)C1C(=O)NC(=O)NC1=O`, the pKa turned out to be 7.98.

The compound `CCOc1cccc(C(=O)O)c1` yielded a pKa of 4.17. Still for that read-out and setting: for `COc1cccc(OC)c1-c1nc2cnccc2[nH]1` the value was 10.9; for `O=C(O)CC(c1ccccc1)c1ccccc1Cl` (stereo unspecified), 4.7. The compound `N#CC(C#N)C(C#N)C#N` registered a pKa of 3.6. Consider `OCC(S)CS` (stereo unspecified), for which the pKa was determined as 8.62. Same read-out and setting: with `Cc1ccc2c(c1[O-])-c1c-2ccc(C)c1O` the figure was 11.5; with `O=C(O)C1CCCCn2nnnc21` (stereo unspecified), 3.4. Still for that read-out and setting: for `O=C(O)[C@H](O)c1ccc([N+](=O)[O-])cc1` the value was 2.99; for `Nc1n[nH]c(N)c1/N=N/c1ccc(C(=O)O)cc1`, 4.68; for `CC1(C)CC(=O)C(=NO)C(=O)C1`, 5.4. `Sc1ccc(Cl)c(Cl)c1` displayed a pKa of 5.48. Turning to `CC1(C)C=CC(C)(c2cc3ccc(=O)oc3cc2O)CC1` (stereo unspecified), the pKa stood at 8.12. The same measure, in the same setting: with `CC1(C)OC(=O)NC1=O` the figure was 6.15; with `Nc1ncnc2c1ncn2CCOCP(=O)([O-])O`, 7; with `CCC[n+]1cccc2c(O)cccc21`, 6.06. On the same count and under the same terms, with `C[C@@H]1C[C@@H]([C@H](O)CC2CC(=O)NC(=O)C2)C(=O)[C@@H](C)C1` the figure was 11.2. Same read-out and setting: for `Cn1cnc2nc([O-])nc(O)c21` the value was 10.6; for `CCCCC#CC(=O)O`, 2.61; for `S=CNc1ccccc1Cl`, 10. Consider `O=S(=O)([O-])c1cc(O)cc2cn[nH]c12`, for which the pKa was found to be 9.65. For the compound `CC(C)Oc1ccccc1C(=O)O`, the pKa stood at 4.24. The same measure, in the same setting: with `O=C1CSC(=S)N1` the figure was 6.48. Same read-out and setting: for `CC(C)Oc1ccc(C(=O)O)cc1` the value was 4.57; for `Cc1cccc(C(O)C(C(=O)O)c2ccc(-c3ccccc3)cc2)c1` (stereo unspecified), 4.17.

Consider `O=C1COC(=O)C1Br` (stereo unspecified), for which the pKa was 2.23. In turn, `Cn1cnc2c(O)[nH+]c(N)nc21` yielded a pKa of 3.07. For the compound `Nc1ncnc2[nH]ncc12`, the pKa is 10.8.

Turning to `O=C1COC(=O)C1I` (stereo unspecified), the pKa stood at 2.31.

In turn, `[O-]c1ccc(O)cc1Br` had a pKa of 10.7. In turn, `CC[NH+](CC)Cc1c(O)c(Cl)cc(Cl)c1Cl` gave a pKa of 5.13.

`COc1cccc(C(=O)O)c1` came in with a pKa of 4.06. Still for that read-out and setting: with `Oc1cncc[nH+]1` the figure was -0.1.

`CC(C)(C)CC#CC(=O)O` gave a pKa of 2.54. The same measure, in the same setting: with `[NH3+]CCCCCCNC(=S)S` the figure was 2.95; with `CC(C)(C)CC(=O)O`, 5.01.

In turn, `O=c1ccc(O)ccc1O` yielded a pKa of 6.47. As for `O=C(c1ccccc1)N(O)c1ccccc1`, the pKa is 7.87.

`NC(=O)c1ccccc1C(=O)O` gave a pKa of 3.75. On the same count and under the same terms, for `O=C(O)Cc1c[nH]c2ccccc12` the value was 4.39; for `Cc1nc(C(=O)[O-])ccc1O`, 9.49. Consider `CC[NH+](CC)CCOc1ccccc1C(=O)NO`, for which the pKa was 8.42. Same read-out and setting: with `[O-]c1[nH+]c(O)nc2nc[nH]c12` the figure was 7.56; with `[NH3+]Cc1nnn[nH]1`, 2.62; with `O=C1NC(=O)C2CCC12` (stereo unspecified), 9.63.

`NNC(=O)C(F)(F)C(F)(F)F` came in with a pKa of 7.92. The same measure, in the same setting: for `O/N=C(/Cc1ccccc1)NO` the value was 10.7; for `CC(=O)N(C)O`, 8.73; for `Cc1cccc(S(=O)(=O)O)c1`, -6.56. `Cc1cc(O)ccc1O` registered a pKa of 10.1. With `C[NH+](C)Cc1cccc(O)c1`, the pKa is 8.88. On the same count and under the same terms, for `O=[N+]([O-])c1cccc2c[n+](CCO)ccc12` the value was 11.7; for `Cc1ccc(C(=S)Nc2ccc(Cl)cc2)cc1`, 10.8; for `COc1ccc2c3c([nH]c2c1)C(C)NCC3` (stereo unspecified), 15.6. The same measure, in the same setting: for `CC(C)(C)c1ccccc1C(=O)O` the value was 3.53. Take `Oc1cc2cccnc2c2cccnc12`: the pKa was found to be 8.5.

In turn, `COO` showed a pKa of 11.5. On the same count and under the same terms, for `CC1CC(C)C(=O)CC1=O` (stereo unspecified) the value was 5.62; for `Nc1ccc(S(=O)(=O)Nc2ccc(S(N)(=O)=O)cc2)cc1`, 7.85. In the case of `O=C(O)c1cccc([N+](=O)[O-])c1Cl`, the pKa turned out to be 2.02.

`Cc1ccc(NC=S)cc1` came in with a pKa of 11.6.

`N#CCCC(=O)O` yielded a pKa of 3.98. On the same count and under the same terms, with `Cc1c(Cl)cc2nnn(O)c2c1[N+](=O)[O-]` the figure was 3.21.

The data set is the same for the next values; noted with them: basic group.
For `Nc1nnnn1-c1ccc([N+](=O)[O-])cc1`, the pKa turned out to be 0.34. Take `CN(C)c1ccc(/N=N/c2ccncc2)cc1`: the pKa came out at 5.8. Same read-out and setting: with `COc1cccc(OC)c1-c1nc2cnccc2[nH]1` the figure was 6.34; with `Nc1ncnc2c1nnn2Cc1ccco1`, 2.6; with `CSc1cccc(N)c1`, 4.05.

In turn, `c1csc(-c2nccs2)n1` came in with a pKa of 2.76. `CCCCNCCCCCCNCCCC`: the pKa was found to be 11.3. For `c1ccc(-n2cnnn2)cc1`, the pKa was -3.41.

Regarding `Cc1ccc(-c2ncc(-c3ccccc3)o2)cc1`, the pKa worked out at 1.04. The same measure, in the same setting: for `Cc1cc(-c2cc(C)n(C)n2)nn1C` the value was 2.22.

In the case of `COc1ccc(C2CCC[NH+]2C)cn1` (stereo unspecified), the pKa amounted to 1.34. Same read-out and setting: with `COc1ccc(-c2cnc(-c3ccccc3)o2)cc1` the figure was 1.05. Same read-out and setting: with `Nc1n[nH]c(N)c1/N=N/c1ccc(C(=O)O)cc1` the figure was 3.4; with `CN([NH3+])C(N)=S`, 1.2; with `c1ccc(-c2ccc3ccc4cccnc4c3n2)cc1`, 4.9. Same read-out and setting: with `COc1cnnc2ccccc12` the figure was 3.21; with `CCNNC`, 7.5; with `Nc1ccc2c(c1Br)CCCC2`, 3.05. With `CC(C)CCNc1ncnc2[nH]ncc12`, the pKa turned out to be 4.62. Still for that read-out and setting: with `OCc1ccccn1` the figure was 4.66; with `Nc1ncnc2ccccc12`, 5.79. In the case of `c1c[nH]c(Cc2ncc[nH]2)n1`, the pKa was found to be 7.27. In turn, `C=CCNCCCCCCCCCCC(=O)[O-]` came in with a pKa of 9.3. Still for that read-out and setting: with `CNC(=N)N(C)C` the figure was 13.6. Still for that read-out and setting: for `NCCCCO` the value was 10.3; for `Nc1ncnc2c1ncn2CCOCP(=O)([O-])O`, 4.18. Same read-out and setting: with `COCCNc1cccc(OC)c1` the figure was 3.7. `CN(C)c1ccc(/N=N/c2ccccc2)cc1` showed a pKa of 2.85. Still for that read-out and setting: for `CCCNC(C)C` the value was 11. Still for that read-out and setting: with `CN1CCCCC1` the figure was 10.1. `CCOCCNc1cccc(OC)c1` registered a pKa of 3.67.

Take `[O-]c1cc2ccccc2cc1C1=NCCN1`: the pKa worked out at 10.8. Still for that read-out and setting: with `CCOc1ccc2[nH]c(CC(C)C)nc2c1` the figure was 6.07. Same read-out and setting: for `CC/N=c1\sc(-c2ccccc2)nn1CC` the value was 6.7.

Compound `C[N+](C)(C)CCOC(=O)/C=C/c1c[nH]cn1` gave a pKa of 4.6. On the same count and under the same terms, with `Nc1cccc(-c2cccc(N)n2)n1` the figure was 6.7; with `CCCCCCCNCc1ccc(C)cc1`, 10; with `Cc1c[nH]c(C)c1`, 2.04. Consider `CC1/C(=N/O)C[C@@H]2N=C(c3ccccc3)O[C@@]13[C@@H]1OC(=O)[C@H](C)[C@H]1CC[C@]23C` (stereo partly specified), for which the pKa is 4.7. Still for that read-out and setting: with `C1CCN(CCN2CCCCC2)CC1` the figure was 9.43; with `C=CCN`, 9.74; with `Nc1ncnc2[nH]ncc12`, 4.59. On the same count and under the same terms, with `CN(C)CC(P(=O)([O-])[O-])P(=O)([O-])[O-]` the figure was 8.98; with `COc1cnccc1N`, 9.03; with `[O-]c1[nH+]cnc2nc[nH]c12`, 1.99. Still for that read-out and setting: for `COc1ccc(C[C@H](C)N)cc1OC` the value was 9.6; for `CC(=O)Oc1cccc2cccnc12`, 3.3; for `C[C@@H]1CC[C@H]2CC[C@H](C)N21`, 11.5.

Compound `CC(C)CSCCN` yielded a pKa of 8.73.

On to `c1cc(C2CCCN2)nc(C2CCCN2)c1` (stereo unspecified), for which the pKa was found to be 10.1. The same measure, in the same setting: for `Nc1nc2ccccc2o1` the value was 3.73; for `CCN(CC)CCCNC(=O)/C=N/[O-]`, 10.3; for `O=C1Nc2cncnc2N/C1=C1/Nc2ncncc2NC1=O`, 1. Still for that read-out and setting: for `O=C(c1ccccc1)N(O)c1ccccc1` the value was -2.08; for `CCc1ncc[nH]1`, 8.05. Same read-out and setting: for `Cc1cc(C)nc(NS(=O)(=O)c2ccc([NH3+])cc2)n1` the value was -0.89; for `OCc1cc(-c2ccccc2)nnc1NCCN1CCOCC1`, 6.99. With `c1ccc(CNC(CC2CCCCC2)CC2CCCCC2)cc1`, the pKa turned out to be 7.7.

For `Cc1nc(C(=O)[O-])ccc1O`, the pKa is 5.13. In turn, `CN(CCC[NH3+])CCC[NH3+]` displayed a pKa of 6.45.

Compound `CCN(CC)CCBr` had a pKa of 7. Turning to `NC(=O)Cc1ccncc1`, the pKa amounted to 5.08. On the same count and under the same terms, with `CN(C)Cc1cc(C[NH+](C)C)cc(O)c1O` the figure was 7.22; with `NCC(F)F`, 7.09; with `Cc1ccccc1/C(=N/CCC[NH+](C)C)c1ccc2ccccc2c1`, 4.54. Same read-out and setting: with `C#CC(C)(C)N(C)C(C)(C)C` the figure was 9.3; with `O/N=C(/Cc1ccccc1)NO`, 4.25; with `CNc1nccn2cc(-c3ccc(S(C)=O)cc3OC)nc12` (stereo unspecified), 5.36.

With `CNCl`, the pKa is 1.71. The same measure, in the same setting: with `C=Cc1c(C)c2cc3nc(c(CC(=O)OC)c4[nH]c(cc5nc(cc1[nH]2)C(C)=C5CC)c(C)c4C(=O)NCC)[C@@H](CCC(=O)OC)[C@@H]3C` the figure was 2.7; with `Nc1ccnc([O-])n1`, 12.2. For the compound `Nc1ccc2c(c1)Cc1cccc(O)c1-2`, the pKa was 4.73. In turn, `Clc1nc2cc3c(cc2[nH]1)CCCC3` showed a pKa of 2.68.

In turn, `Cc1cc(C)ncn1` displayed a pKa of 2.7. Same read-out and setting: for `COc1ccc2c3c1O[C@H]1CCC[C@H]4[C@H](NCC[C@]314)[C@H]2O` the value was 8.72.

For the compound `Clc1cc(-c2ccccc2)nnc1NCC[NH+]1CCOCC1`, the pKa was 2.54. Same read-out and setting: with `CC(N)C(=O)[O-]` (stereo unspecified) the figure was 9.83; with `[NH3+][C@@H](Cc1c[nH]cn1)C(=O)N[C@@H](Cc1c[nH]cn1)C(=O)[O-]`, 6.8.

`Oc1cc2cccnc2c2cccnc12` returned a pKa of 3.9. Same read-out and setting: with `N#Cc1ccccc1N` the figure was 0.95.

Consider `CC(CO)CN(C)C` (stereo unspecified), for which the pKa came to 9.75.

On to `CCNc1cccc2ccccc12`, for which the pKa was found to be 4.19. On the same count and under the same terms, for `CN(C)/C=N/c1ccc(Br)cc1` the value was 8.1.

These data come from the pKa sets of Baltruschat and Czodrowski (2020).
